Reference: publication PMC10166890, “Screening for DAX1/EWS‐FLI1 functional inhibitors identified dihydroorotate dehydrogenase as a therapeutic target for Ewing's sarcoma” (Cancer Medicine, 2023)
“Also recorded” adds a separate entry of the source. Read-outs that look alike come from different tables or passages of the source. One block for each molecule: values may come before it.

Tests used:
[1] = system: DAX1; assay: DAX1 reporter assay (KJMGER8/pAGal9p4‐hDAX1 cells, luciferase); type: cell-based, human; conditions: for IC50: Homo sapiens; for Inhibitory effect on DAX1 reporter activity: overnight treatment
Experimental: pAGal9‐hDAX1 and pAPPRE×10‐Luc + were transfected into KJMGER8 cells by electroporation using a Gene Pulser (Bio‐Rad Laboratories, Hercules, CA, USA), and clones stably expressing the DAX1 and luciferase reporter genes under the control of PPRE were selected. The obtained clone was termed KJMGER8/pAGal9p4‐hDAX1. KJMGER8/pAGal9p4‐hDAX1 cells (1.8 × 10^4 cells/well) were seeded in 384‐well white plates (Greiner Japan, Tokyo, Japan) and cultured in RPMI1640‐IPTSG medium containing 10 nM 17β‐estradiol (E2; Sigma‐Aldrich), dissolved in ethanol, with test compounds at concentration ranges of 0.01 to 10,000 nM or vehicle (dimethyl sulfoxide [DMSO]). The final DMSO concentration was ≤0.3%, and the ethanol concentration was 0.1%. The next day, Blight‐Glo Luciferase Assay Reagent (Promega, Madison, WI, USA) was added to the medium. The luciferase activity was measured using a TopCount NXT system (PerkinElmer, Waltham, MA, USA). IC50 values were calculated using XLfit version 4 (ID Business Solutions, Surrey, UK).
A DAX1 reporter assay system was constructed with the estrogen‐inducible Namalwa cell (KJMGER8 cell) by co‐transfection with pAGal9‐hDAX1 and pAPPRE×10‐Luc+.[18] In the obtained cell line KJMGER8/pAGal9p4‐hDAX1, DAX1 expression is induced by E2 treatment, and the expressed DAX1 increases luciferase expression. Reporter activity was increased by E2 treatment as expected (Figure S2). […] Using this DAX1 reporter assay system, small‐molecule compounds in an in‐house library were screened to obtain DAX1 inhibitors, and K‐234 was identified (Figure 1).
pAGal9-hDAX1 and pAPPRE×10-Luc+ were transfected into KJMGER8 cells by electroporation using a Gene Pulser (Bio-Rad Laboratories, Hercules, CA, USA), and clones stably expressing the DAX1 and luciferase reporter genes under the control of PPRE were selected. The obtained clone was termed KJMGER8/pAGal9p4-hDAX1. KJMGER8/pAGal9p4-hDAX1 cells (1.8×10^4 cells/well) were seeded in 384-well white plates (Greiner Japan, Tokyo, Japan) and cultured in RPMI1640-IPTSG medium containing 10 nM 17β-estradiol (E2; Sigma-Aldrich), dissolved in ethanol, with test compounds at concentration ranges of 0.01 to 10000 nM or vehicle (dimethyl sulfoxide [DMSO]). The final DMSO concentration was ≤0.3%, and the ethanol concentration was 0.1%. The next day, Blight-Glo Luciferase Assay Reagent (Promega, Madison, WI, USA) was added to the medium. The luciferase activity was measured using a TopCount NXT system (PerkinElmer, Waltham, MA, USA). IC50 values were calculated using XLfit version 4 (ID Business Solutions, Surrey, UK)

[2] = system: A‐673 cells; assay: Cell viability assay (XTT), A‐673 cells; type: cell-based, human; conditions: for GI50: Homo sapiens, A673; for Effect of DHODH overexpression on cell growth inhibitory effect in A‐673 cells: pcDNA3.1hygro(+)‐hDHODH transfected
Experimental: (§1) AsPC‐1, A‐673, and TC‐71 cells were seeded in 96‐well plates (800 cells/well for AsPC‐1, 2000 cells/well for A‐673, and 400 cells/well for TC‐71) and cultured overnight. Vehicle (DMSO) or a test compound diluted with the medium was then added to the wells (final DMSO concentration was 0.3%), and 72 h later, 2,3‐bis[2‐methoxy‐4‐nitro‐5‐sulfophenynl]‐2H‐tetrazolium‐5‐carboxanilide inner salt (XTT) reagent (Roche Diagnostics, Mannheim, Germany) was added to the medium. After 3‐h incubation at 37°C, the formation of the formazan dye was determined by measuring absorbance at 490 and 650 nm using a SpectraMax 340PC system (Molecular Devices, Sunnyvale, CA, USA).

[3] = system: EWS‐FLI1‐related genes; assay: EWS‐FLI1‐related gene expression in A‐673 cells (RT‐qPCR); type: cell-based, human; conditions: 48 h; for Expression of DAX1, IGFBP3, and DKK1 in A‐673 cells / Effect of uridine addition on up‐regulation of DAX1, IGFBP3, and DKK1: 1000 nmol/L; for Effect of uridine addition on up‐regulation of DAX1, IGFBP3, and DKK1: uridine 100 μM
Experimental: Total RNA was extracted using the RNeasy Plus Mini kit (Qiagen, Valencia, CA, USA) according to the manufacturer's protocol. cDNA was synthesized from 1 μg of total RNA using a SuperScript VILO cDNA synthesis kit (Thermo Fisher Scientific). Real‐time PCR was carried out using TaqMan Fast Universal PCR Master Mix (Thermo Fisher Scientific).
FIGURE 3 EWS‐FLI1‐related gene expression after treatment with DAX1 inhibitors and knockdown of FLI1 in A‐673 cells. (A) A‐673 cells were treated with siRNA of FLI1 (siFLI‐1, siFLI‐2) or control siRNA (control siRNA1, control siRNA2) for 24 h, and EWS‐FLI1‐related genes were analyzed (details of siRNA are shown in Table S2). The gene expression was normalized by the GAPDH expression and normalized by the mean of control siRNA‐treated samples. Each bar represents the mean of duplicate measurements. (B) A‐673 cells were treated with PTC299 at 1000 nM for 48 h, and EWS‐FLI1‐related genes were analyzed. Gene expression was normalized by the GAPDH expression and by DMSO‐treated samples. Each bar represents the mean of duplicate measurements.
FIGURE 6 Influence of DHODH overexpression on Ewing's sarcoma cell growth and the EWS‐FLI1‐regulated gene expression. (A) pcDNA3.1hygro(+)‐hDHODH was transfected into A‐673 cells. The A‐673 cells with DHODH or control A‐673 cells were treated with indicated concentrations of PTC299 and KF20444 for 72 h, and cell viability was measured. Each plot represents the mean of triplicate measurements. (B) A‐673 cells with or without uridine (100 μM) were treated with indicated concentrations of PTC299 for 72 h, and cell viability was measured. Each plot represents the mean of triplicate measurements. (C) A‐673 cells with or without uridine (100 μM) were treated with PTC299 and KF20444 at 1000 nmol/L for 48 h, and the EWS‐FLI1‐related gene expression was evaluated. The expression was normalized by GAPDH and by DMSO‐treated samples. (D) KJMGER8/pAGal9p4‐hDAX1 cells with or without uridine (100 μM) were treated with indicated concentrations of PTC299 and K‐733 overnight, and the luciferase activity was measured. Each plot represents the mean of quadruplicate measurements.

[4] = target: T1, DHODH (Homo sapiens, UniProt Q02127); assay: DHODH inhibition assay, A‐673 mitochondria fraction (orotic acid production, LCMSMS); type: biochemical
T1 construct: The mitochondria fraction was isolated from A‐673 cells using Q proteome Mitochondria Isolation kit; endogenous in cells; host or cells: A-673 cells, mitochondria fraction
Experimental: The mitochondria fraction was isolated from A‐673 cells using Q proteome Mitochondria Isolation kit (QIAGEN, Hilden, Germany). The protein concentration of the fraction was determined using the DC‐protein assay kit (Bio‐Rad Laboratories, Hercules, CA, USA) with bovine serum albumin (Sigma‐Aldrich) as the standard. […] The reaction was quenched by adding 120 μL of 3 μM 5‐fluoroorotic acid acetonitrile solution. These samples were then centrifuged at 5000 g for 5 min to precipitate proteins, and the supernatant was collected. The samples were diluted 10‐fold with 70% acetonitrile‐water and subjected to liquid chromatography with tandem mass spectrometry (LCMSMS). The analyte was then separated on a hydrophilic interaction chromatography column (PC‐HILIC; 5 μm, 4.6 mm I.D. × 50 mm; Osaka Soda, Osaka, Japan). LCMSMS detection was performed by electrospray ionization in negative ion mode.

[5] = target: T2, DHODH (Mus musculus, UniProt O35435); assay: DHODH inhibition with mouse liver mitochondria; type: biochemical; conditions: mouse liver mitochondria; read-out: DHODH IC50 Mouse
T2 construct: IC50 value for the mouse liver mitochondrial fraction; from tissue; host or cells: mouse liver mitochondria

[6] = target: T3, DHODH (Rattus norvegicus, UniProt Q63707); assay: DHODH inhibition with rat liver mitochondria; type: biochemical
T3 construct: from tissue; host or cells: rat liver mitochondria

[7] = system: SK‐ES‐1 cells; assay: Cell viability, SK‐ES‐1 cells; type: cell-based, human; conditions: 120 h, type 2 fusion
Experimental: (§2) FIGURE 2 K‐234 influences the growth of Ewing's sarcoma. (A) Ewing's sarcoma‐derived A‐673 and TC‐71 cells and human pancreas adenocarcinoma‐derived AsPC‐1 cells as a control were treated with indicated concentrations of K‐234 for 72 h, and cell viability was measured. Each value represents the mean of duplicate measurements. (B) Ewing's sarcoma with type 2‐fusion gene‐derived SK‐ES‐1, RD‐ES, and MHH‐ES‐1 cells and Ewing's sarcoma with EWS‐ERG fusion gene‐derived CADO‐ES1 cells were treated with indicated concentrations of K‐234 for 120 h, and cell viability was measured. Each value represents the mean of duplicate measurements.

[8] = system: RD‐ES cells; assay: Cell viability, RD‐ES cells; type: cell-based, human; conditions: 120 h, type 2 fusion
Experimental: as §2

[9] = system: CADO‐ES1 cells; assay: Cell viability, CADO‐ES1 cells; type: cell-based, human; conditions: 120 h, EWS‐ERG fusion
Experimental: as §2

[10] = system: TC‐71 cells; assay: Cell viability assay (XTT), TC‐71 cells; type: cell-based, human; conditions: 72 h
Experimental: as §1

[11] = system: MHH‐ES‐1 cells; assay: Cell viability, MHH‐ES‐1 cells; type: cell-based, human; conditions: 120 h, type 2 fusion
Experimental: as §2

[12] = KJMGER8, Table S3, read-out: DAX1 reporter IC50
[13] = 50% growth inhibition concentration, A‐673 cells
[14] = KJMGER8/pAGal9p4‐hDAX1 cells, 10 nM E2, overnight, read-out: IC50 for inhibition of DAX1 reporter activity

T1 sequence (Q02127 whole entry): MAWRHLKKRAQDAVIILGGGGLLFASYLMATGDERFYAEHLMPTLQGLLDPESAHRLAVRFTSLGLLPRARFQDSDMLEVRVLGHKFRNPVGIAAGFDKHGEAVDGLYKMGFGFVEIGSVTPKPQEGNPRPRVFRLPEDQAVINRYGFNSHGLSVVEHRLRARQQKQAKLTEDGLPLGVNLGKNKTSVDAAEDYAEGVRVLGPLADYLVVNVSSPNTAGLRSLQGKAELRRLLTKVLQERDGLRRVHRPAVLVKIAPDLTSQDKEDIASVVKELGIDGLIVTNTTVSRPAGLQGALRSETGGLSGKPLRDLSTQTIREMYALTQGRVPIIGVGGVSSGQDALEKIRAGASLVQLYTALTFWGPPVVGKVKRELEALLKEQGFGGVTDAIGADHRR
T2 sequence (O35435 whole entry): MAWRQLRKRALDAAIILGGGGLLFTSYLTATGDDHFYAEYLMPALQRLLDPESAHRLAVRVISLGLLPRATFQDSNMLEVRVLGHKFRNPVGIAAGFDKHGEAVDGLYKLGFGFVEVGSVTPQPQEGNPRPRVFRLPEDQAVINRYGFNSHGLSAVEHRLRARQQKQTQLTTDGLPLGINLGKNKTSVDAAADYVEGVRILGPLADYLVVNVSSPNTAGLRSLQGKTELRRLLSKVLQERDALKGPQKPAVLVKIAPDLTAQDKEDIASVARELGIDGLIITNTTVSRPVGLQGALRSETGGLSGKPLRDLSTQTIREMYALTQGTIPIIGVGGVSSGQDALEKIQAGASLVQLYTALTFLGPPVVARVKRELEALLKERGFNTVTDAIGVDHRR
T3 sequence (Q63707 whole entry): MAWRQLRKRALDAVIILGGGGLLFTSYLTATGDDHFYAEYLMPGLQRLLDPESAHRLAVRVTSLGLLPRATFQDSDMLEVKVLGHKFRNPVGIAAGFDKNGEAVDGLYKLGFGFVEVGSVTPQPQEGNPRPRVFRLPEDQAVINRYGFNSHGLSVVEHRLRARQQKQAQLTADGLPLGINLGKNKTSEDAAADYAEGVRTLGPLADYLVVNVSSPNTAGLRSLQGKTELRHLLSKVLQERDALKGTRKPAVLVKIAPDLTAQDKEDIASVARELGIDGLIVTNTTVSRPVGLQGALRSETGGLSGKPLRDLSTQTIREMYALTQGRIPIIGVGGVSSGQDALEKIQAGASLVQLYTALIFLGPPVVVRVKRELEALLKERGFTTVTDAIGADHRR

SMILES: Cc1c(-c2ccc(-c3ccccc3F)cc2)nc2ccc(F)cc2c1C(=O)O [Brequinar]
IC50 [1, 12]: 73 nM
GI50 [2, 13]: 115 nM

IC50 ([4]; Table S3, read-out: DHODH IC50): 16.8 nM
IC50 [1, 12]: 13.2 nM
IC50 [5]: 6.1 nM
IC50 [6]: 34.1 nM
SMILES: O=C(O)c1c2c(nc3ccc(F)cc13)-c1ccc(-c3ccccc3F)cc1CCC2 [KF20444]
Expression of DAX1, IGFBP3, and DKK1 in A‐673 cells [3]: up‐regulated
Effect of uridine addition on up‐regulation of DAX1, IGFBP3, and DKK1 [3]: abrogated
Cell viability of A‐673 cells ([2]; 72 h): reduced the cell viability
Effect of DHODH overexpression on cell growth inhibitory effect in A‐673 cells ([2]; 72 h): weakened; also recorded: partially attenuated
GI50 [2, 13]: 22.2 nM

IC50 [1, 14]: 94.5 nM
SMILES: O=C(Oc1ccccc1)N1CCc2c([nH]c3ccc(Cl)cc23)C1c1ccc(Cl)cc1 (stereo not drawn) [K‐234, phenyl 6‐chloro‐1‐(4‐chlorophenyl)‐1,3,4, 9‐tetrahydro‐2H‐pyrido[3,4‐b]indole‐2‐carboxylate]
Cell viability of SK‐ES‐1 cells [7]: significantly reduced the viability
Cell viability of RD‐ES cells [8]: significantly reduced the viability
Cell viability of CADO‐ES1 cells [9]: significantly reduced the viability
Cell viability of TC‐71 cells [10]: significantly reduced the viability
Cell viability of MHH‐ES‐1 cells [11]: significantly reduced the viability
Cell viability of A‐673 cells ([2]; 72 h): significantly reduced the viability

IC50 ([4]; Table S3, read-out: DHODH IC50): 3.49 nM
IC50 [1, 12]: 666 nM
SMILES: CC(=O)N1CCc2c([nH]c3ccc(Br)cc23)C1c1ccccc1 (stereo not drawn) [NSC 665564]
GI50 [2, 13]: 119 nM

IC50 ([4]; read-out: IC50 for orotic acid production through DHODH): 4.13 nM
IC50 [1, 14]: 33 nM
IC50 [5]: 103 nM
IC50 [6]: 1520 nM
SMILES: COc1ccc([C@H]2c3[nH]c4ccc(Cl)cc4c3CCN2C(=O)Oc2ccc(Cl)cc2)cc1 [PTC299, 4‐chlorophenyl (S)‐6‐chloro‐1‐(4‐methoxyphenyl)‐1,3,4,9‐tetrahydro‐2H‐pyrido[3,4‐b]indole‐2‐carboxylate]
DAX1 expression in A‐673 cells ([3]; 1000 nM): slightly induced
Expression of DAX1, IGFBP3, and DKK1 in A‐673 cells [3]: up‐regulated
Effect of uridine addition on up‐regulation of DAX1, IGFBP3, and DKK1 [3]: abrogated
Cell viability of TC‐71 cells [10]: decreased the viability
Effect of uridine addition on inhibition of DAX1 reporter activity ([1]; uridine 100 μM, overnight): completely abrogated
Cell viability of A‐673 cells ([2]; 72 h): decreased the viability
Effect of knockdown and overexpression of DAX1 on the reduction in viability of A‐673 cells ([2]; 72 h): no marked effect
Effect of DHODH overexpression on cell growth inhibitory effect in A‐673 cells ([2]; 72 h): significantly attenuated; also recorded: completely canceled
GI50 [2, 13]: 5.11 nM
Effect of uridine addition on growth inhibitory effect in A‐673 cells ([2]; uridine 100 μM, 72 h): completely blocked; also recorded: completely canceled

SMILES: CC(=O)O[C@H]1C(=O)[C@@]2(C)[C@H]([C@H](OC(=O)c3ccccc3)[C@]3(O)C[C@H](OC(=O)[C@H](O)[C@@H](NC(=O)c4ccccc4)c4ccccc4)C(C)=C1C3(C)C)[C@]1(OC(C)=O)CO[C@@H]1C[C@@H]2O [Paclitaxel]
Inhibitory effect on DAX1 reporter activity [1]: did not inhibit
Inhibitory effect on DAX1 reporter activity ([1]; listed as paclitaxel): did not show a remarkable inhibitory effect

IC50 [1, 12]: 8500 nM
SMILES: C/C(O)=C(\C#N)C(=O)Nc1ccc(C(F)(F)F)cc1 [Teriflunomide]
GI50 ([2]; Figure 7 legend): > 10000 nM
